Assays:
Assay type in all cases: binding
[1] = molecular target: SW480 colon carcinoma cells lysate proteins (Homo sapiens, UniProt P07237); conditions: PreyGene P4HB
[2] = molecular target: T1, SW480 colon carcinoma cells lysate proteins (Homo sapiens, UniProt P52565); conditions: PreyGene ARHGDIA
T1 sequence (P52565 1-204): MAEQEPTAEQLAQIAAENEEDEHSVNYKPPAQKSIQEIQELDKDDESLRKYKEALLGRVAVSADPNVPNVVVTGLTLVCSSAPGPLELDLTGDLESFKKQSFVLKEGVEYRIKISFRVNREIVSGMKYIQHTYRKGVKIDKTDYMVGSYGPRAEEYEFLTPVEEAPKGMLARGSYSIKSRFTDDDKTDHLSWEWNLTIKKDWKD

[3] = molecular target: T2, SW480 colon carcinoma cells lysate proteins (Homo sapiens, UniProt P37837); conditions: PreyGene TALDO1
T2 sequence (P37837 1-337): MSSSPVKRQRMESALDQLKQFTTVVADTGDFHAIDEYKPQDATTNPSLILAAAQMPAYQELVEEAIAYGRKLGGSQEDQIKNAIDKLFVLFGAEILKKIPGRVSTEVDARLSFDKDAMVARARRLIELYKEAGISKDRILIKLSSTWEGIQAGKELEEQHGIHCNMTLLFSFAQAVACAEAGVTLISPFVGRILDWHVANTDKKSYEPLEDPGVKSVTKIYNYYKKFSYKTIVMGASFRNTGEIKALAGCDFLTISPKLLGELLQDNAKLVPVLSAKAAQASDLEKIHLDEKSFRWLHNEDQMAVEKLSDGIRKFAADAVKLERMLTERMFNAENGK

[4] = molecular target: T3, SW480 colon carcinoma cells lysate proteins (Homo sapiens, UniProt Q96FQ6); conditions: PreyGene S100A16; SW480 cells
T3 sequence (Q96FQ6 1-103): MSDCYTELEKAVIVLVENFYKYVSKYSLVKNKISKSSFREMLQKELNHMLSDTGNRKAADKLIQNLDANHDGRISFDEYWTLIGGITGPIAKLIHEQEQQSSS

[5] = molecular target: T4, SW480 colon carcinoma cells lysate proteins (Homo sapiens, UniProt Q9UHD8); conditions: PreyGene 09-Sep
T4 sequence (Q9UHD8 1-586): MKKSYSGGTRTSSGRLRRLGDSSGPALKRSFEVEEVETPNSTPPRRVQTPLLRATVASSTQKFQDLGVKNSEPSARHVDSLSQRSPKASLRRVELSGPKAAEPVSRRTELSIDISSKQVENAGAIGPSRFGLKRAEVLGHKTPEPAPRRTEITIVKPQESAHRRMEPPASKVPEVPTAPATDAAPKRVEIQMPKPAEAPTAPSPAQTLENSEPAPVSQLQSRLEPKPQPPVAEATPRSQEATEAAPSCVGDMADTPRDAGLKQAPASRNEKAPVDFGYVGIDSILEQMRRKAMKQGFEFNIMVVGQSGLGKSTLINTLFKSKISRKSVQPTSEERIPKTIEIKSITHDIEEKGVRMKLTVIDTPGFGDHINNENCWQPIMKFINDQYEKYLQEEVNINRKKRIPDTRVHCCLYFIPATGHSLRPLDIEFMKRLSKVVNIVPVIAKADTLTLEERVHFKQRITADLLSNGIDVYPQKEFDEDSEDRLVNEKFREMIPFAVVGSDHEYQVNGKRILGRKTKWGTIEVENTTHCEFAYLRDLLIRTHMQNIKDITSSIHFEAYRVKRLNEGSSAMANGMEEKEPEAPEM

[6] = molecular target: T5, SW480 colon carcinoma cells lysate proteins (Homo sapiens, UniProt P11586); conditions: PreyGene MTHFD1
T5 sequence (P11586 1-935): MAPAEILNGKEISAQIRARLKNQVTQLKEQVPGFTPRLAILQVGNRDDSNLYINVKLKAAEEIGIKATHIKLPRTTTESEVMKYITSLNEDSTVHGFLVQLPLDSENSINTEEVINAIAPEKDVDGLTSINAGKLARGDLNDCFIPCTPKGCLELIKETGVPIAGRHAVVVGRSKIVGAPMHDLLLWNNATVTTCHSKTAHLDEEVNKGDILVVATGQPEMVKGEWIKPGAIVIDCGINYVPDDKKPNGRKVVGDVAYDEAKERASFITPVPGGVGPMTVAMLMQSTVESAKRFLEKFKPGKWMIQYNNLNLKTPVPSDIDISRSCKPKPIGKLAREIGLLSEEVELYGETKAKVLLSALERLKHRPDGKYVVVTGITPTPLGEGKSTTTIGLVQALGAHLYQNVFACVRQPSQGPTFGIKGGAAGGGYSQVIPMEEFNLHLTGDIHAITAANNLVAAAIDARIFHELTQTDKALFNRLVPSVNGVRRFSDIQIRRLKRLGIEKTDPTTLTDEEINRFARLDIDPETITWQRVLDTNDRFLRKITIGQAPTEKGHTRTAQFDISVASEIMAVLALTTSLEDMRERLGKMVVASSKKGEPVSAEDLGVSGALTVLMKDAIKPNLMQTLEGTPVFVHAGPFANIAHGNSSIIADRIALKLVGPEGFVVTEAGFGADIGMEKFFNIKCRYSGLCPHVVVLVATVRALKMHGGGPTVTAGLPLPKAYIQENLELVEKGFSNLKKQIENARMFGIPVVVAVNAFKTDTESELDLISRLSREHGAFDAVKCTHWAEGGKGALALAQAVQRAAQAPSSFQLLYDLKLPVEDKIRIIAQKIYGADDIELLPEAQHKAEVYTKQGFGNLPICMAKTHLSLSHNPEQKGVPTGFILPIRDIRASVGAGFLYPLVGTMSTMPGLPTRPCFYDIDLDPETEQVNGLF

Sequence of SW480 colon carcinoma cells lysate proteins (Homo sapiens, UniProt P07237) (P07237 18-508): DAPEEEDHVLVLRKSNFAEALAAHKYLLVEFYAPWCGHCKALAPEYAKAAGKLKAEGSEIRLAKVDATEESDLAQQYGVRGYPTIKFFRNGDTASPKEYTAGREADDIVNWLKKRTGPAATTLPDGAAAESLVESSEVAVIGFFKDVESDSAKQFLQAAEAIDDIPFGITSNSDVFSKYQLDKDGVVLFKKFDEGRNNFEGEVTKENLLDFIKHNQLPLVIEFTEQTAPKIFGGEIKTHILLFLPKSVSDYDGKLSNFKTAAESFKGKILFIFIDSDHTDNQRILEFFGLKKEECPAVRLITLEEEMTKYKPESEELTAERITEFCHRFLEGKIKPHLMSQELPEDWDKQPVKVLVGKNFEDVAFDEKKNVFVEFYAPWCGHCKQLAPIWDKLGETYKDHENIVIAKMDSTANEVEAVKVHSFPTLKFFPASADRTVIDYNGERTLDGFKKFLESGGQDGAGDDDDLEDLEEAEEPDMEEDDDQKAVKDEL

## C[C@H](Oc1cc(-c2cnn(C3CCNCC3)c2)cnc1N)c1c(Cl)ccc(F)c1Cl [(5)-crizotinib]
[1]
  AvgP: 0.3981
  SC.Exp. 1-1: 3
  SC.Exp. 1-2: 4
  SC.Exp. 2-1: 0
  SC.Exp. 2-2: 0
  Sum (SC.Exp.): 7
[2]
  AvgP: 0.4128
  SC.Exp. 1-1: 2
  SC.Exp. 1-2: 3
  SC.Exp. 2-1: 0
  SC.Exp. 2-2: 0
  Sum (SC.Exp.): 5
[3]
  AvgP: 0.3739
  SC.Exp. 1-1: 2
  SC.Exp. 1-2: 2
  SC.Exp. 2-1: 0
  SC.Exp. 2-2: 0
  Sum (SC.Exp.): 4
[4]
  AvgP: 0
  SC.Exp. 1-1: 1
  SC.Exp. 1-2: 0
  SC.Exp. 2-1: 0
  SC.Exp. 2-2: 0
  SC.Exp. Sum: 1
[5]
  AvgP: 0.323
  SC.Exp. 1-1: 1
  SC.Exp. 1-2: 2
  SC.Exp. 2-1: 0
  SC.Exp. 2-2: 2
  Sum (SC.Exp.): 5
[6]
  AvgP: 0.2666
  SC.Exp. 1-1: 2
  SC.Exp. 1-2: 2
  SC.Exp. 2-1: 0
  SC.Exp. 2-2: 0
  Sum (SC.Exp.): 4

Source: US9446039B2, “Aminoheteroaryl compounds as MTH1 inhibitors” (CEMM—FORSCHUNGSZENTRUM FÜR MOLEKULARE MEDIZIN GMBH, priority 2012, dated 2016)
